# Assay results taken from patent US20260001893A1, “SMALL MOLECULE MODULATORS OF STAT6” (Gilead Sciences, Inc., priority 2024, published 2026).
# System: Eotaxin-3 (CCL26) release in human whole blood stimulated with IL-4
# Assay: Human whole blood eotaxin-3 assay (IL-4 stimulated eotaxin-3 release)
# Assay type: cell-based
# Details: Homo sapiens, 48 h, human whole blood stimulated with recombinant human IL-4, 48 h; given for test compounds with <80% Emax; geometric mean
# Description: Human Whole Blood Eotaxin-3 Assay
# This was a human whole blood assay using recombinant human Interleukin 4 to stimulate the blood and measuring the ability of the test compounds to inhibit eotaxin-3 release. The biological activities of the test compounds have been tested in human whole blood stimulated with IL-4 measuring Eotaxin-3 release. The test compounds were added to 384 well clear flat-bottom plate in a 4-fold serial dilution in triplicates using a liquid handler. Human whole blood stabilized in lithium-heparin tubes was added in a volume of 65 μL per well, resulting in a final DMSO concentration of 0.5%. The plate is incubated for 2 h at 37° C. under 5% CO2/95% air. Subsequently, 5 μL of recombinant human IL-4 (R&D Systems, cat #204-ILB) was added to the wells to a final concentration of […]. The plate was incubated for 48 h at 37° C. under 5% CO2/95% air. The plate was spun down for 10 minutes at 500×g and 20 μL supernatant was harvested and transferred to a 384 well v-bottom plate using a liquid handler and stored at −20° C. until further analysis. 10 μL supernatant was used to measure the level of Eotaxin-3 (CCL26) using Human Eotaxin-3 MSD kit from Mesocsale (Cat #K251UEK-4). The assay was performed according to the manufacture instructions.
# The data from the human whole blood eotaxin-3 assay is shown below for Examples 1ab3, 1ab6, 1d23, and 1d4 (where the effect in % is plotted against the test concentration in M on a log-scale).
row,Compound,Emax
1,"CN(C)C(=O)c1ccc(C2=CCN(Cc3cc4c(-n5ccc6c(c5=O)CCN6)ccnc4n3C)CC2)cn1 [Example 1m70, N,N-dimethyl-1′-((1-methyl-4-(4-oxo-1,2,3,4-tetrahydro-5H-pyrrolo[3,2-c]pyridin-5-yl)-1H-pyrrolo[2,3-b]pyridin-2-yl)methyl)-1′, 2′, 3′, 6′-tetrahydro-[3,4′-bipyridine]-6-carboxamide]",20 to 30%
2,"Cc1cc(C(=O)N(C)C)nnc1C1=CCN(Cc2cc3c(-n4ccc5c(c4=O)CCN5)ccnc3n2C)CC1 [Example 1m81, N,N,5-trimethyl-6-(1-((1-methyl-4-(4-oxo-1,2,3,4-tetrahydro-5H-pyrrolo[3,2-c]pyridin-5-yl)-1H-pyrrolo[2,3-b]pyridin-2-yl)methyl)-1,2,3,6-tetrahydropyridin-4-yl)pyridazine-3-carboxamide]",30 to 40%
3,"CN(C)C(=O)c1ccc(C2=CCN(Cc3cc4c(-n5ccc6c(c5=O)CCN6)ccnc4n3C)CC2)cc1F [Example 1m83, 2-fluoro-N,N-dimethyl-4-(1-((1-methyl-4-(4-oxo-1,2,3,4-tetrahydro-5H-pyrrolo[3,2-c]pyridin-5-yl)-1H-pyrrolo[2,3-b]pyridin-2-yl)methyl)-1,2,3,6-tetrahydropyridin-4-yl)benzamide]",30 to 40%

# Same assay, conditions: Homo sapiens, 48 h, human whole blood stimulated with recombinant human IL-4, 48 h; inhibition of eotaxin-3 release; given for test compounds with >80% Emax; geometric mean
row,Compound,EC50
1,"CNc1ccn(-c2ccnc3c2cc(CN2CC=C(c4c(C)cc(C(=O)N(C)C)cc4F)CC2)n3C)c(=O)c1 [Example 1m56, 3-Fluoro-N,N,5-trimethyl-4-(1-((1-methyl-4-(4-(methylamino)-2-oxopyridin-1 (2H)-yl)-1H-pyrrolo[2,3-b]pyridin-2-yl)methyl)-1,2,3,6-tetrahydropyridin-4-yl)benzamide]",3.64 nM
2,"CNc1ccn(-c2ccnc3c2cc(CN2CC=C(c4c(C)cc(C(=O)N(C)C)cc4Cl)CC2)n3C)c(=O)c1 [Example 1m57, 3-Chloro-N,N,5-trimethyl-4-(1-((1-methyl-4-(4-(methylamino)-2-oxopyridin-1 (2H)-yl)-1H-pyrrolo[2,3-b]pyridin-2-yl)methyl)-1,2,3,6-tetrahydropyridin-4-yl)benzamide]",27 nM
3,"CNc1ccn(-c2ccnc3c2cc(CN2CC=C(c4ncc(C(=O)N(C)C)cc4C(F)(F)F)CC2)n3C)c(=O)c1 [Example 1m69, N,N-Dimethyl-6-[1-[[1-methyl-4-[4-(methylamino)-2-oxo-1-pyridyl]pyrrolo[2,3-b]pyridin-2-yl]methyl]-3,6-dihydro-2H-pyridin-4-yl]-5-(trifluoromethyl)pyridine-3-carboxamide]",319 nM
4,"[2H]C([2H])([2H])N(C(=O)c1ccc(C2CCN([C@@H](C)c3cc4c(-n5ccc(NC)cc5=O)ccnc4n3C)CC2)cc1)C([2H])([2H])[2H] [Example 1m74, (S)—N,N-bis(methyl-d3)-4-(1-(1-(1-methyl-4-(4-(methylamino)-2-oxopyridin-1 (2H)-yl)-1H-pyrrolo[2,3-b]pyridin-2-yl)ethyl)piperidin-4-yl)benzamide]",12.9 nM
5,"CNC(=O)c1cc(C)c(C2=CCN(Cc3cc4c(-n5ccc(NC)cc5=O)ccnc4n3C)CC2)c(F)c1 [Example 1m75, 3-fluoro-N,5-dimethyl-4-(1-((1-methyl-4-(4-(methylamino)-2-oxopyridin-1 (2H)-yl)-1H-pyrrolo[2,3-b]pyridin-2-yl)methyl)-1,2,3,6-tetrahydropyridin-4-yl)benzamide]",17.8 nM
6,"[2H]C([2H])([2H])N(C(=O)c1cc(C)c(C2=CCN(Cc3cc4c(-n5ccc(N)nc5=O)ccnc4n3C)CC2)c(F)c1)C([2H])([2H])[2H] [Example 1m78, 4-(1-((4-(4-amino-2-oxopyrimidin-1 (2H)-yl)-1-methyl-1H-pyrrolo[2,3-b]pyridin-2-yl)methyl)-1,2,3,6-tetrahydropyridin-4-yl)-3-fluoro-5-methyl-N,N-bis(methyl-d3)benzamide]",26.6 nM
7,"[2H]C([2H])([2H])N(C(=O)c1ccc(C2CCN([C@@H](C)c3cc4c(-n5cc(F)c(N)nc5=O)ccnc4n3C)CC2)cc1)C([2H])([2H])[2H] [Example 1m80, (S)-4-(1-(1-(4-(4-amino-5-fluoro-2-oxopyrimidin-1 (2H)-yl)-1-methyl-1H-pyrrolo[2,3-b]pyridin-2-yl)ethyl)piperidin-4-yl)-N,N-bis(methyl-d3)benzamide]",133 nM
8,"C[C@@H](c1cc2c(-n3ccc4c(c3=O)CCN4)ccnc2n1C)N1CCC(c2ccc(C(=O)N(C)C)cc2)CC1 [Example 1m82, (S)—N,N-dimethyl-4-(1-(1-(1-methyl-4-(4-oxo-1,2,3,4-tetrahydro-5H-pyrrolo[3,2-c]pyridin-5-yl)-1H-pyrrolo[2,3-b]pyridin-2-yl)ethyl)piperidin-4-yl)benzamide]",18.4 nM
9,"Cc1cc(C(=O)N(C)C)ccc1C1=CCN([C@@H](C)c2cc3c(-n4ccc(N)c(F)c4=O)ccnc3n2C)CC1 [Example 1m84, (S)-4-(1-(1-(4-(4-amino-3-fluoro-2-oxopyridin-1 (2H)-yl)-1-methyl-1H-pyrrolo[2,3-b]pyridin-2-yl)ethyl)-1,2,3,6-tetrahydropyridin-4-yl)-N,N,3-trimethylbenzamide]",3.69 nM
10,"CNc1ccn(-c2ccnc3[nH]c(C(C)N4CC=C(c5c(C)cc(C(=O)N(C)C)cc5F)CC4)cc23)c(=O)c1 (stereo not shown) [Example 1m85, 3-fluoro-N,N,5-trimethyl-4-(1-(1-(4-(4-(methylamino)-2-oxopyridin-1 (2H)-yl)-1H-pyrrolo[2,3-b]pyridin-2-yl)ethyl)-1,2,3,6-tetrahydropyridin-4-yl)benzamide]",128 nM
11,"Cc1cc(C(=O)N(C)C)ccc1C1=CCN([C@H](C)c2cc3c(-n4ccc(N)c(F)c4=O)ccnc3n2C)CC1 [Example 1m86, (R)-4-(1-(1-(4-(4-amino-3-fluoro-2-oxopyridin-1 (2H)-yl)-1-methyl-1H-pyrrolo[2,3-b]pyridin-2-yl)ethyl)-1,2,3,6-tetrahydropyridin-4-yl)-N,N,3-trimethylbenzamide]",672 nM
12,"Cc1cc(C(=O)N(C)C)cc(F)c1C1=CCN(Cc2cc3c(-n4ccc(N)c(C)c4=O)ccnc3n2C)CC1 [Example 1m87, 4-(1-((4-(4-amino-3-methyl-2-oxopyridin-1 (2H)-yl)-1-methyl-1H-pyrrolo[2,3-b]pyridin-2-yl)methyl)-1,2,3,6-tetrahydropyridin-4-yl)-3-fluoro-N,N,5-trimethylbenzamide]",4.55 nM
13,"CNc1ccn(-c2ccnc3c2cc(CN2CC=C(c4c(C)cc(C(=O)N(C)C)cc4F)CC2)n3C)c(=O)n1 [Example 1m88, 3-fluoro-N,N,5-trimethyl-4-(1-((1-methyl-4-(4-(methylamino)-2-oxopyrimidin-1 (2H)-yl)-1H-pyrrolo[2,3-b]pyridin-2-yl)methyl)-1,2,3,6-tetrahydropyridin-4-yl)benzamide]",4.8 nM
14,"[2H]C([2H])([2H])N(C(=O)c1ccc(C2CCN([C@@H](C)c3cc4c(-n5ccc6[nH]ncc6c5=O)ccnc4n3C)CC2)cc1)C([2H])([2H])[2H] [Example 1m89, (S)—N,N-bis(methyl-d3)-4-(1-(1-(1-methyl-4-(4-oxo-1,4-dihydro-5H-pyrazolo[4,3-c]pyridin-5-yl)-1H-pyrrolo[2,3-b]pyridin-2-yl)ethyl)piperidin-4-yl)benzamide]",5.87 nM
15,"CNc1ccn(-c2ccnc3c2cc(CN2CC=C(c4c(F)cc(C(=O)N(C)C)cc4F)CC2)n3C)c(=O)c1 [Example 1m90, 3,5-difluoro-N,N-dimethyl-4-(1-((1-methyl-4-(4-(methylamino)-2-oxopyridin-1 (2H)-yl)-1H-pyrrolo[2,3-b]pyridin-2-yl)methyl)-1,2,3,6-tetrahydropyridin-4-yl)benzamide]",28.8 nM
16,"CNc1ccn(-c2ccnc3c2cc(CN2CCC(c4c(F)cc(C(=O)N(C)C)cc4F)CC2)n3C)c(=O)c1 [Example 1m91, 3,5-difluoro-N,N-dimethyl-4-(1-((1-methyl-4-(4-(methylamino)-2-oxopyridin-1 (2H)-yl)-1H-pyrrolo[2,3-b]pyridin-2-yl)methyl)piperidin-4-yl)benzamide]",45.5 nM
17,"[2H]C([2H])([2H])N(C(=O)c1cc(C)c(C2=CCN([C@@H](C)c3cc4c(-n5ccc(N)cc5=O)ccnc4n3C)CC2)c(F)c1)C([2H])([2H])[2H] [Example 1m93, (S)-4-(1-(1-(4-(4-amino-2-oxopyridin-1 (2H)-yl)-1-methyl-1H-pyrrolo[2,3-b]pyridin-2-yl)ethyl)-1,2,3,6-tetrahydropyridin-4-yl)-3-fluoro-5-methyl-N,N-bis(methyl-d3)benzamide]",3.76 nM
18,"[2H]C([2H])([2H])N(C(=O)c1cc(C)c(C2=CCN(Cc3cc4c(-n5ccc(N)c(C)c5=O)ccnc4n3C)CC2)c(F)c1)C([2H])([2H])[2H] [Example 1m94, 4-(1-((4-(4-amino-3-methyl-2-oxopyridin-1 (2H)-yl)-1-methyl-1H-pyrrolo[2,3-b]-pyridin-2-yl)methyl)-1,2,3,6-tetrahydropyridin-4-yl)-3-fluoro-5-methyl-N,N-bis(methyl-d3)benzamide]",6.65 nM
19,"CNc1ccn(-c2ccnc3c2cc(CN2CCC(c4c(F)cc(C(=O)N(C)C)cc4F)CC2)n3C)c(=O)n1 [Example 1m95, 3,5-difluoro-N,N-dimethyl-4-(1-((1-methyl-4-(4-(methylamino)-2-oxopyrimidin-1 (2H)-yl)-1H-pyrrolo[2,3-b]pyridin-2-yl)methyl)piperidin-4-yl)benzamide]",44.6 nM
